Experimental data from patent US4395401A, “Renally active dipeptides” (SmithKline Beckman Corporation, priority 1981, dated 1983).

Key:
[1] = test system: anesthetized dogs; assay: Secondary testing (ED15); assay type: in vivo, dog
[2] = test system: anesthetized dogs; assay: Infusion to anesthetized dogs, measuring renal blood flow and renal vascular resistance (procedure of U.S. Pat. No. 4,197,297); assay type: in vivo, dog
Source text: Specific results are included in the examples.

[3] = infusion 30 μg/kg/min, anesthetized dog
[4] = infusion at 30 and 300 μg/kg/min
[5] = 300 μg/kg/min, anesthetized dog
[6] = infusion 300 μg/kg/min, anesthetized dog

NCCc1ccc(O)c(O)c1 [Dopamine, reference compound]
ED15 [1]: 0.0035 mg/kg

CC(=O)O.COc1ccc(CC(C)(NC(=O)[C@@H]2CCCN2C(=O)CCCc2ccc(O)cc2)C(=O)N[C@@H](CCCNC(=N)N)C(=O)O)cc1OC (stereo partly drawn) [Example 1, N-4-(4'-hydroxyphenyl)-butyryl-L-prolyl-D,L-α-methyl-3,4-dimethoxyphenylalanyl-L-arginine acetic acid salt]
decrease of renal vascular resistance [2, 3]: -21.3 | increase of renal blood flow [2, 3]: +18% | ED15 [1]: 0.506 mg/kg

COc1ccc(CC(C)(NC(=O)[C@@H]2CCCN2C(=O)CCCc2ccc(O)cc2)C(=O)NCCCN)cc1OC.Cl (stereo partly drawn) [Example 2, N-4-(4'-hydroxyphenyl)-butyryl-L-prolyl-D,L-α-methyl-3,4-dimethoxyphenylalanine 3-aminopropylamide hydrochloride]
decrease of renal vascular resistance ([2]; infusion 3 μg/kg/min): -11% | increase of renal blood flow ([2]; infusion 3 μg/kg/min): +13.5% | renal blood flow (in words) [2, 4]: increased renal blood | renal vascular resistance (in words) [2, 4]: decreased renal vascular resistance

CC(=O)O.CC(Cc1ccc(O)cc1)(NC(=O)[C@@H]1CCCN1C(=O)CCCc1ccc(O)cc1)C(=O)N[C@@H](CCCNC(=N)N)C(=O)O (stereo partly drawn) [Example 3, N-4-(4'-hydroxyphenyl)-butyryl-L-prolyl-D,L-α-methyltyrosyl-L-arginine acetic acid salt]
decrease of renal vascular resistance ([2]; 3 μg/kg/min, anesthetized dog): -12 | increase of renal blood flow ([2]; 3 μg/kg/min, anesthetized dog): +8.0 | increase of renal blood flow ([2]; 30 μg/kg/min, anesthetized dog): +12.0 | decrease of renal vascular resistance [2, 5]: -11 | increase of renal blood flow [2, 5]: +11.0 | increase of renal blood flow after a cumulative dose ([2]; cumulative dose at 3, 30 and 300 μg/kg/min): 28% | decrease of renal vascular resistance [2, 3]: -9

CC(Cc1ccc(O)cc1)(NC(=O)[C@@H]1CCCN1C(=O)CCCc1ccc(O)cc1)C(=O)NCCCN.Cl (stereo partly drawn) [Example 4, N-4-(4'-hydroxyphenylbutyryl)-L-prolyl-D,L-α-methyltyrosine ω-aminopropylamide, hydrochloride]
decrease of renal vascular resistance ([2]; 3 μg/kg/min, anesthetized dog): -9.5 | increase of renal blood flow ([2]; 3 μg/kg/min, anesthetized dog): +8.5

CC(Cc1ccccc1)(NC(=O)[C@@H]1CCCN1C(=O)CCCc1ccc(O)cc1)C(=O)NCCCN.Cl (stereo partly drawn) [Example 5, N-4-(4'-hydroxyphenylbutyryl)-L-prolyl-D,L-α-methylphenylalanine ω-aminopropylamide, hydrochloride]
cumulative drug effect ([2]; infused in anesthetized dogs): demonstrated a cumulative drug effect | increase of renal blood flow [2, 6]: +11.7% | decrease of vascular renal resistance ([2]; infusion 300 μg/kg/min, anesthetized dogs): 11.3%

CC(=O)O.C[C@@](Cc1ccccc1)(NC(=O)[C@@H]1CCCN1C(=O)CCCc1ccc(O)cc1)C(=O)N[C@@H](CCCNC(=N)N)C(=O)O.O [Example 6, N-4-(4'-hydroxyphenyl)-butyryl-L-prolyl-D,L-α-methylphenylalanyl-L-arginine 1.5HOAc.1H2 O]
increase of renal blood flow [2, 3]: +12% | increase of renal blood flow [2, 6]: +11%
